In data set [1] the test system is B16-F10. Description: Induction of melanogenesis in mouse B16F10 cells assessed as intracellular melanin level at 100 uM after 72 hrs. It is filed as functional.
The subject of data set [2] is B16-F10. The data set can be described thus: Induction of melanogenesis in mouse B16F10 cells assessed as intracellular melanin level at 10 uM after 72 hrs. It is filed as functional.
Data set [3] in a line: Cytotoxicity against mouse B16F10 cells assessed as cell viability at 10 uM by MTT assay. Conditions: read-out: Activity. It counts as cell-based, B16-F10. (In general: Tetrazolium dyes change colour on reduction, which living cells bring about.)
The target in data set [4] is T1, Tyrosinase (Agaricus bisporus) (UniProt O42713).
T1 sequence (whole entry): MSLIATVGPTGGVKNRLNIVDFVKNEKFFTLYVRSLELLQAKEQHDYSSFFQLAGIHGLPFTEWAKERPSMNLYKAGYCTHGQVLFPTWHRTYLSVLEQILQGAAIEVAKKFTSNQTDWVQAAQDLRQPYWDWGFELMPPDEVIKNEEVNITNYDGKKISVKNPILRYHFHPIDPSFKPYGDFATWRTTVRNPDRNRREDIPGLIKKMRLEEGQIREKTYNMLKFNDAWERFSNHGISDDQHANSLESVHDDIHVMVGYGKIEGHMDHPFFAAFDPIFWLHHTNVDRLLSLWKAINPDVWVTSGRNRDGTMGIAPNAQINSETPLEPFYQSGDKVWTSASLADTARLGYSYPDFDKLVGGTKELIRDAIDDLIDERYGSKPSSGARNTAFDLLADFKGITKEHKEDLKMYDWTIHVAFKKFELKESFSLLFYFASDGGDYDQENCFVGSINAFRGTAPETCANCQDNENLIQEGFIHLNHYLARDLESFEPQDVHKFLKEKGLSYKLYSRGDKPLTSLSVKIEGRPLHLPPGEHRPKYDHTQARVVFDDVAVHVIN
The data set can be described thus: Induction of mushroom tyrosinase activity using L-tyrosine as substrate at 100 uM after 30 mins.

Data set [5] has as its system B16-F10. The data set can be described thus: Induction of melanogenesis in mouse B16F10 cells assessed as intracellular melanin level at 200 uM after 72 hrs. It counts as functional.
Data set [6] addresses T1, Tyrosinase (Agaricus bisporus). Description: Induction of mushroom tyrosinase activity using L-tyrosine as substrate at 50 uM after 30 mins.
The nature of data set [7]: Cytotoxicity against mouse B16F10 cells assessed as cell viability at 200 uM by MTT assay. It is filed as cell-based, B16-F10. Conditions: read-out: Activity.
Data set [8] addresses T1, Tyrosinase (Agaricus bisporus). Description: Induction of mushroom tyrosinase activity using L-DOPA as substrate at 50 uM after 30 mins.
The nature of data set [9]: Cytotoxicity against mouse B16F10 cells assessed as cell viability at 100 uM by MTT assay. It is filed as cell-based, B16-F10. Conditions: read-out: Activity.
For data set [10], the target named is T1, Tyrosinase (Agaricus bisporus). The data set can be described thus: Induction of mushroom tyrosinase activity using L-tyrosine as substrate at 200 uM after 30 mins.
For data set [11] the target is unchanged. Description: Induction of mushroom tyrosinase activity using L-DOPA as substrate at 100 uM after 30 mins.
For data set [12] the target is unchanged. The data set can be described thus: Induction of mushroom tyrosinase activity using L-DOPA as substrate at 200 uM after 30 mins.
In data set [13] the test system is B16-F10. Description: Induction of melanogenesis in mouse B16F10 cells assessed as intracellular melanin level after 72 hrs. It is filed as functional, cell-based.
Data set [14] relates to B16-F10. The data set can be described thus: Induction of melanogenesis in mouse B16F10 cells assessed as intracellular melanin level at 125 uM after 72 hrs. It counts as functional.
Data set [15] can be described thus: Cytotoxicity against mouse B16F10 cells assessed as cell viability at 500 uM by MTT assay. It is filed as cell-based, B16-F10. To be noted: read-out: Activity.
A short description of data set [16]: Cytotoxicity against mouse B16F10 cells assessed as cell viability at 250 uM by MTT assay. To be noted: read-out: Activity. It is filed as cell-based, B16-F10.
The test system of data set [17] is B16-F10. The data set can be described thus: Induction of melanogenesis in mouse B16F10 cells assessed as intracellular melanin level at 500 uM after 72 hrs. It counts as functional.
The nature of data set [18]: Cytotoxicity against mouse B16F10 cells assessed as cell viability at 125 uM by MTT assay. It is filed as cell-based, B16-F10. Conditions: read-out: Activity.
Data set [19] deals with B16-F10. Description: Induction of melanogenesis in mouse B16F10 cells assessed as intracellular melanin level at 250 uM after 72 hrs. It is filed as functional.

Molecules are shown by their SMILES.

Take `O=c1c(O[C@@H]2O[C@H](CO)[C@@H](O[C@@H]3O[C@H](CO)[C@@H](O)[C@H](O)[C@H]3O)[C@H](O)[C@H]2O)c(-c2ccc(O)c(O)c2)oc2cc(O[C@@H]3O[C@H](CO)[C@@H](O[C@@H]4O[C@H](CO)[C@@H](O)[C@H](O)[C@H]4O)[C@H](O)[C@H]3O)cc(O)c12`: the Activity in data set [1] is 97.8%; in data set [2] it was 80.3%; in data set [4], 104%; in [5], 102.6%; in [6], 104%; in [8], 101%. The values for the Activity in [10], in [11] and in [12] were 101%, 102% and 103%, respectively. Besides, the viability at 10 µM in [3] came to 105%. Further, the viability at 200 µM in data set [7] stood at 95.2%. Also, the viability at 100 µM in [9] came to 93.9%.
Regarding `O=c1c(O[C@@H]2O[C@H](CO)[C@@H](O)[C@H](O)[C@H]2O)c(-c2ccc(O[C@@H]3O[C@H](CO)[C@@H](O)[C@H](O)[C@H]3O)c(O)c2)oc2cc(O)cc(O)c12`, the Activity in [1] was found to be 90.4%; in data set [2], 89.7%; in data set [4], 98.8%; in data set [5], 92.6%; in [6], 101%; in [8] it was 102%. Besides, the Activity in data set [10] worked out at 94.3%; in data set [11], 99.3%; in [12] it was 99.3%. Moreover, the viability at 10 µM in data set [3] was 107%. Further, in data set [7], the viability at 200 µM is 77.4%. In addition, the viability at 100 µM in [9] amounted to 104%.
Take `O=c1c(O[C@@H]2O[C@H](CO)[C@@H](O)[C@H](O)[C@H]2O)c(-c2ccc(O)c(O)c2)oc2cc(O)cc(O)c12` [ISOQUERCETIN]: the Activity in [1] was 157.1%; in data set [2] it was 116.3%; in data set [4], 96.2%; in [13], “Dose-dependent effect”; in data set [5], 206.9%; in [6], 112%. The Activity in [8] was found to be 107%; in [10], 104%; in data set [11] it was 110%; in data set [12] it was 116%. In addition, the viability at 10 µM in [3] came out at 105%. Moreover, in [7], the viability at 200 µM was determined as 68.4%. For the same compound, the viability at 100 µM in data set [9] was found to be 80.9%.
As for `O=c1c(O[C@@H]2O[C@H](CO)[C@@H](O[C@@H]3O[C@H](CO)[C@@H](O)[C@H](O)[C@H]3O)[C@H](O)[C@H]2O)c(-c2ccc(O)c(O)c2)oc2cc(O)cc(O)c12`, the Activity in data set [1] is 126.8%; in data set [2], 102.6%; in data set [4], 95%; in data set [13], “Dose-dependent effect”; in data set [5], 176%; in [6], 97.5%. The Activity was 103% in data set [8], 82.2% in data set [10], 107% in data set [11] and 112% in data set [12]. Further, the viability at 10 µM in [3] amounted to 99.6%. Moreover, the viability at 200 µM in data set [7] turned out to be 81.1%. Moreover, the viability at 100 µM in data set [9] is 93.2%.
On to `O=c1c(O[C@@H]2O[C@H](CO)[C@@H](O)[C@H](O)[C@H]2O)c(-c2ccc(O[C@@H]3O[C@H](CO)[C@@H](O[C@@H]4O[C@H](CO)[C@@H](O)[C@H](O)[C@H]4O)[C@H](O)[C@H]3O)c(O)c2)oc2cc(O)cc(O)c12`, for which the Activity in data set [1] is 90.9%; in [2] it was 96.8%; in [4], 85.2%; in [5], 96.3%; in data set [6] it was 88.9%; in data set [8], 103%. Moreover, the results for the Activity in data set [10], in [11] and in data set [12] were 82.4%, 105% and 109%, respectively. Also, the viability at 10 µM in data set [3] is 97.8%. Moreover, the viability at 200 µM in data set [7] turned out to be 106%. Moreover, in data set [9], the viability at 100 µM is 107%.
Turning to `O=c1c(O[C@@H]2O[C@H](CO)[C@@H](O[C@@H]3O[C@H](CO)[C@@H](O)[C@H](O)[C@H]3O)[C@H](O)[C@H]2O)c(-c2ccc(O)c(O)c2)oc2cc(O[C@@H]3O[C@H](CO)[C@@H](O)[C@H](O)[C@H]3O)cc(O)c12`, the Activity in data set [1] was found to be 78.9%; in data set [2] it was 91.1%; in [4], 102%; in [5], 119%; in data set [6], 103%; in [8], 102%. Also, the Activity in data set [10], in data set [11] and in [12] was 104% throughout. For the same compound, the viability at 10 µM in [3] was 95.1%. In addition, in data set [7], the viability at 200 µM came out at 98.7%. In data set [9], the viability at 100 µM is 113%.
For `O=c1c(O[C@@H]2O[C@H](CO)[C@@H](O[C@@H]3O[C@H](CO)[C@@H](O)[C@H](O)[C@H]3O)[C@H](O)[C@H]2O)c(-c2ccc(O[C@@H]3O[C@H](CO)[C@@H](O)[C@H](O)[C@H]3O)c(O)c2)oc2cc(O)cc(O)c12`, the Activity in [1] is 151.5%; in data set [2], 137%; in data set [4] it was 95.9%; in [13] it was “Dose-dependent effect”; in data set [5], 190.5%; in data set [6] it was 105%. The Activity came to 101% in [8], 106% in data set [10], 103% in data set [11] and 101% in data set [12]. The viability at 10 µM in data set [3] came out at 90%. Also, the viability at 200 µM in data set [7] was determined as 74.8%. In addition, in data set [9], the viability at 100 µM amounted to 86.8%.
For `Cn1c(=O)c2nc[nH]c2n(C)c1=O.O` [THEOPHYLLINE], the Activity in [14] is listed as 127.6%; in data set [17] it was 166.8%; in data set [19] it was 131.7%. The viability at 500 µM in data set [15] was 91.4%. The viability at 250 µM in data set [16] is 94.4%. The viability at 125 µM in data set [18] is 95.5%.
As for `O=c1c(O[C@@H]2O[C@H](CO)[C@@H](O)[C@H](O)[C@H]2O)c(-c2ccc(O)c(O)c2)oc2cc(O[C@@H]3O[C@H](CO)[C@@H](O[C@@H]4O[C@H](CO)[C@@H](O)[C@H](O)[C@H]4O)[C@H](O)[C@H]3O)cc(O)c12`, the Activity stood at 78.9% in data set [1]; 91.1% in data set [2]; 89% in data set [4]; 83.8% in [5]; 95.2% in [6]; 108% in [8]. Moreover, the Activity in [10] came out at 85.6%; in data set [11], 105%; in data set [12], 110%. In addition, the viability at 10 µM in data set [3] stood at 95.1%. For the same compound, the viability at 200 µM in [7] was determined as 111%. In addition, in data set [9], the viability at 100 µM was 113%.
For the compound `O=c1c(O[C@@H]2O[C@H](CO)[C@@H](O)[C@H](O)[C@H]2O)c(-c2ccc(O)c(O)c2)oc2cc(O[C@@H]3O[C@H](CO)[C@@H](O)[C@H](O)[C@H]3O)cc(O)c12`, the Activity in data set [1] is 113.9%; in data set [2] it was 85%; in data set [4], 85.5%; in data set [5] it was 86.5%; in [6], 92.8%; in [8] it was 103%. Moreover, the Activity was 86.7% in data set [10], 103% in data set [11] and 106% in data set [12]. Also, in data set [3], the viability at 10 µM is 97.7%. For the same compound, the viability at 200 µM in [7] turned out to be 114%. In [9], the viability at 100 µM was determined as 78%.
For the compound `O=c1c(O[C@@H]2O[C@H](CO)[C@@H](O[C@@H]3O[C@H](CO)[C@@H](O)[C@H](O)[C@H]3O)[C@H](O)[C@H]2O)c(-c2ccc(O[C@@H]3O[C@H](CO)[C@@H](O[C@@H]4O[C@H](CO)[C@@H](O)[C@H](O)[C@H]4O)[C@H](O)[C@H]3O)c(O)c2)oc2cc(O)cc(O)c12`, the Activity in data set [1] turned out to be 84.77%; in [2], 79.7%; in data set [4], 95%; in data set [5] it was 99.7%; in [6], 100%; in data set [8], 107%. Besides, the Activity in data set [10] stood at 97.6%; in data set [11] it was 103%; in data set [12], 108%. Also, the viability at 10 µM in data set [3] was determined as 107%. Further, the viability at 200 µM in data set [7] was 99.7%. Moreover, the viability at 100 µM in data set [9] amounted to 106%.
